SMILES strings stand for the structures.

Common to all, as to experiment: Herbicidal effect by foliage and soil treatment
Common to all, as to type: in vivo
Holding throughout (details): 10 g ai/10a, evaluated after 14 days

Assay [1] relates to kediock (Sinapis arvensis). From the text: (§1) Experiment for Determination of Herbicidal Effect by Foliate and Soil Treatment Seeds of redroot pigweed (Amaranthus retroflexus), common blackjack (Bidens pilosa), kediock (Sinapis arvensis), common chickweed (Stellaria media), sicklepod (Cassia obtusifolia), black nightshade (Solanum nigrum), velvetleaf (Abutilon theophrasti), field bindweed (Convolvulus arvensis), wild chamomile (Matricaria chamomilla), cleavers (Galium aparine) and […] (Veronica hederaefolia), were uniformly sowed over a horticultural granular soil (produced by KUREHA CHEMICAL INDUSTRY, CO., LTD.; the same soil was used hereinafter) filled in a planter. The planter was placed in a greenhouse (maintained at 19 to 25° C.) to sprout these plants. Two seedlings of each sprouted plant were transplanted to a 10 cm-diameter pot filled with the horticultural granular soil and cultivated in the greenhouse (maintained at 19 to 25° C.) until reaching a cotyledonal to bifoliate period suited to the foliage and soil treatment. […] Next, additional amounts of Tween 20 and water were added to the obtained solution or suspension to produce a test solution. The plants prepared in the above (1) were placed within a frame having a predetermined inside area, and uniformly sprayed with the test solution using a sprayer such that the amount of each compound applied was controlled to a predetermined level. The plants sprayed with the test solution were placed again in the greenhouse (maintained at 19 to 25° C.) and cultivated therein. After 14 days, the degree of growth of each plant cultivated in the treated region was compared with that of plant cultivated in non-treated region, and evaluated according to the following ratings. The herbicidal activity of each test compound was represented by these ratings

The test system of assay [2] is wild chamomile (Matricaria chamomilla).
From the text: as §1

For assay [3], the system named is common chickweed (Stellaria media).
From the text: as §1

In assay [4] the test system is cleavers (Galium aparine).
From the text: as §1

In assay [5] the test system is field bindweed (Convolvulus arvensis).
From the text: as §1

Assay [6] relates to redroot pigweed (Amaranthus retroflexus).
From the text: as §1

In assay [7] the test system is common blackjack (Bidens pilosa).
From the text: as §1

For assay [8], the system named is ivyleafspeedwell (Veronica hederaefolia).
From the text: as §1

Assay [9] deals with velvetleaf (Abutilon theophrasti).
From the text: as §1

Assay [10] relates to sicklepod (Cassia obtusifolia).
From the text: as §1

In assay [11] the test system is black nightshade (Solanum nigrum).
From the text: as §1

For `COc1cc(Oc2cccc(C(F)(F)F)c2)nc(C(=O)Nc2ccccc2)c1` [Compound I-1, N-phenyl-4-methoxy-6-{3-(trifluoromethyl)phenoxy}-2-pyridine carboxamide], the “herbicidal activity rating, SA (Sinapis arvensis)” value (“herbicidal activity rating, SA” below) in [1] is recorded as 5 (percentage of weeds killed was not less than 80%). The “herbicidal activity rating, MC (Matricaria chamomilla)” value (“herbicidal activity rating, MC” below) in assay [2] is 4 (percentage of weeds killed was not less than 60% and less than 80%). The “herbicidal activity rating, SM (Stellaria media)” value (shortened to “herbicidal activity rating, SM”) in [3] is 4 (percentage of weeds killed was not less than 60% and less than 80%). Moreover, the “herbicidal activity rating, GA (Galium aparine)” value (shortened to “herbicidal activity rating, GA”) in [4] is 5 (percentage of weeds killed was not less than 80%). In addition, the “herbicidal activity rating, CA (Convolvulus arvensis)” value (“herbicidal activity rating, CA” below) in assay [5] was 4 (percentage of weeds killed was not less than 60% and less than 80%). Further, the “herbicidal activity rating, AR (Amaranthus retroflexus)” value (“herbicidal activity rating, AR” below) in assay [6] is 5 (percentage of weeds killed was not less than 80%). Also, in assay [7], the “herbicidal activity rating, BP (Bidens pilosa)” value (from here on “herbicidal activity rating, BP”) is recorded as 5 (percentage of weeds killed was not less than 80%). In addition, in assay [8], the “herbicidal activity rating, VH (Veronica hederaefolia)” value (“herbicidal activity rating, VH” below) is 5 (percentage of weeds killed was not less than 80%). In addition, the “herbicidal activity rating, AT (Abutilon theophrasti)” value in [9] was 4 (percentage of weeds killed was not less than 60% and less than 80%). Further, the “herbicidal activity rating, CO (Cassia obtusifolia)” value (shortened to “herbicidal activity rating, CO”) in [10] is given as 5 (percentage of weeds killed was not less than 80%). For the same compound, in assay [11], the “herbicidal activity rating, SN (Solanum nigrum)” value (“herbicidal activity rating, SN” below) is 5 (percentage of weeds killed was not less than 80%).
On to `COc1cc(Oc2cccc(C(F)(F)F)c2)nc(C(=O)Nc2ccc(Cl)cc2)c1` [Compound I-2], for which the “herbicidal activity rating, SA” value in assay [1] is recorded as 5 (percentage of weeds killed was not less than 80%). The “herbicidal activity rating, MC” value in [2] was 3 (percentage of weeds killed was not less than 40% and less than 60%). In addition, the “herbicidal activity rating, SM” value in [3] was 4 (percentage of weeds killed was not less than 60% and less than 80%). Moreover, the “herbicidal activity rating, GA” value in assay [4] is on record as 5 (percentage of weeds killed was not less than 80%). The “herbicidal activity rating, CA” value in assay [5] is on record as 5 (percentage of weeds killed was not less than 80%). In addition, the “herbicidal activity rating, AR” value in assay [6] is recorded as 5 (percentage of weeds killed was not less than 80%). Besides, the “herbicidal activity rating, BP” value in assay [7] is recorded as 5 (percentage of weeds killed was not less than 80%). The “herbicidal activity rating, VH” value in [8] is 5 (percentage of weeds killed was not less than 80%). Besides, the “herbicidal activity rating, AT (Abutilon theophrasti)” value in [9] was 4 (percentage of weeds killed was not less than 60% and less than 80%). Besides, the “herbicidal activity rating, CO” value in assay [10] is recorded as 5 (percentage of weeds killed was not less than 80%). In addition, in [11], the “herbicidal activity rating, SN” value is reported as 5 (percentage of weeds killed was not less than 80%).
As to `COc1cc(Oc2cccc(C(F)(F)F)c2)nc(C(=O)Nc2ccc(F)cc2)c1` [Compound I-11], the “herbicidal activity rating, SA” value in assay [1] was 5 (percentage of weeds killed was not less than 80%). Also, the “herbicidal activity rating, MC” value in assay [2] is 4 (percentage of weeds killed was not less than 60% and less than 80%). Also, the “herbicidal activity rating, SM” value in [3] was 4 (percentage of weeds killed was not less than 60% and less than 80%). Besides, the “herbicidal activity rating, GA” value in assay [4] is reported as 5 (percentage of weeds killed was not less than 80%). The “herbicidal activity rating, CA” value in [5] was 4 (percentage of weeds killed was not less than 60% and less than 80%). Moreover, the “herbicidal activity rating, AR” value in assay [6] is recorded as 5 (percentage of weeds killed was not less than 80%). In addition, the “herbicidal activity rating, BP” value in assay [7] is on record as 5 (percentage of weeds killed was not less than 80%). Also, the “herbicidal activity rating, VH” value in assay [8] was 5 (percentage of weeds killed was not less than 80%). The “herbicidal activity rating, AT (Abutilon theophrasti)” value in assay [9] was 3 (percentage of weeds killed was not less than 40% and less than 60%). For the same compound, the “herbicidal activity rating, CO” value in [10] is 5 (percentage of weeds killed was not less than 80%). The “herbicidal activity rating, SN” value in assay [11] is 5 (percentage of weeds killed was not less than 80%).
Consider `COc1cc(Oc2cccc(OC(F)(F)F)c2)nc(C(=O)Nc2ccccc2)c1` [Compound I-20, N-phenyl-4-methoxy-6-{3-(trifluoromethoxy)phenoxy}-2-pyridine carboxamide], for which, in assay [1], the “herbicidal activity rating, SA” value is on record as 5 (percentage of weeds killed was not less than 80%). Besides, the “herbicidal activity rating, MC” value in assay [2] is 4 (percentage of weeds killed was not less than 60% and less than 80%). In [3], the “herbicidal activity rating, SM” value is reported as 5 (percentage of weeds killed was not less than 80%). Also, the “herbicidal activity rating, GA” value in assay [4] was 5 (percentage of weeds killed was not less than 80%). The “herbicidal activity rating, CA” value in [5] was 4 (percentage of weeds killed was not less than 60% and less than 80%). Besides, the “herbicidal activity rating, AR” value in [6] was 5 (percentage of weeds killed was not less than 80%). Moreover, in [7], the “herbicidal activity rating, BP” value is reported as 5 (percentage of weeds killed was not less than 80%). For the same compound, in [8], the “herbicidal activity rating, VH” value is on record as 5 (percentage of weeds killed was not less than 80%). Moreover, in [9], the “herbicidal activity rating, AT (Abutilon theophrasti)” value is 4 (percentage of weeds killed was not less than 60% and less than 80%). In addition, the “herbicidal activity rating, CO” value in assay [10] is on record as 5 (percentage of weeds killed was not less than 80%). In addition, in [11], the “herbicidal activity rating, SN” value is recorded as 5 (percentage of weeds killed was not less than 80%).
As to `CCCNC(=O)c1cc(OC)cc(Oc2cccc(C(F)(F)F)c2)n1` [Compound I-33, N-(n-propyl)-4-methoxy-6-{3-(trifluoromethyl)phenoxy}-2-pyridine carboxamide], the “herbicidal activity rating, SA” value in [1] is 5 (percentage of weeds killed was not less than 80%). Further, the “herbicidal activity rating, MC” value in [2] was 5 (percentage of weeds killed was not less than 80%). The “herbicidal activity rating, SM” value in assay [3] is on record as 5 (percentage of weeds killed was not less than 80%). The “herbicidal activity rating, GA” value in [4] is 5 (percentage of weeds killed was not less than 80%). For the same compound, the “herbicidal activity rating, CA” value in assay [5] is 4 (percentage of weeds killed was not less than 60% and less than 80%). For the same compound, the “herbicidal activity rating, AR” value in assay [6] was 5 (percentage of weeds killed was not less than 80%). Moreover, the “herbicidal activity rating, BP” value in assay [7] is on record as 5 (percentage of weeds killed was not less than 80%). Further, in [8], the “herbicidal activity rating, VH” value was 5 (percentage of weeds killed was not less than 80%). In addition, the “herbicidal activity rating, AT (Abutilon theophrasti)” value in [9] is listed as 5 (percentage of weeds killed was not less than 80%). For the same compound, in assay [10], the “herbicidal activity rating, CO” value is listed as 5 (percentage of weeds killed was not less than 80%). In assay [11], the “herbicidal activity rating, SN” value is 5 (percentage of weeds killed was not less than 80%).
On to `CCCNC(=S)c1cc(OC)cc(Oc2cccc(C(F)(F)F)c2)n1` [Compound I-34, N-(n-propyl)-4-methoxy-6-{3-(trifluoromethyl)phenoxy}-2-pyridine thiocarboxamide], for which, in assay [1], the “herbicidal activity rating, SA” value is reported as 5 (percentage of weeds killed was not less than 80%). Further, in [2], the “herbicidal activity rating, MC” value was 5 (percentage of weeds killed was not less than 80%). Also, the “herbicidal activity rating, SM” value in assay [3] is 5 (percentage of weeds killed was not less than 80%). In addition, the “herbicidal activity rating, GA” value in [4] was 5 (percentage of weeds killed was not less than 80%). Moreover, the “herbicidal activity rating, CA” value in [5] is 4 (percentage of weeds killed was not less than 60% and less than 80%). Moreover, the “herbicidal activity rating, AR” value in assay [6] was 5 (percentage of weeds killed was not less than 80%). Besides, in [7], the “herbicidal activity rating, BP” value is recorded as 5 (percentage of weeds killed was not less than 80%). Moreover, the “herbicidal activity rating, VH” value in [8] is listed as 5 (percentage of weeds killed was not less than 80%). The “herbicidal activity rating, AT (Abutilon theophrasti)” value in assay [9] is given as 5 (percentage of weeds killed was not less than 80%). In addition, the “herbicidal activity rating, CO” value in assay [10] is recorded as 5 (percentage of weeds killed was not less than 80%). For the same compound, in [11], the “herbicidal activity rating, SN” value is 5 (percentage of weeds killed was not less than 80%).
